Reference: patent US11999727B2 (Tango Therapeutics, Inc., priority 2020, dated 2024)
Where two headings read alike, the source gives them in different places.

Tests used:
[1] = tested on: HAP1 MTAP-deleted cell line; assay: Viability assay, MTAP-deleted cell line; format: cell-based; conditions: read-out: HAP1 MTAP deleted viability
Source text: Table 1 additionally indicates IC50 values in a viability assay for the MTAP-deleted cell line (column 10), indicating the effect of treatment with compound on cell survival.

PRMT5 [2] = target: T1, PRMT5 (Homo sapiens, UniProt O14744); assay: PRMT5 biochemical IC50 assay with SAM as cofactor; conditions: PRMT5, SAM as cofactor; read-out: SAM IC50
T1 construct: purchased Viva (custom protein)

PRMT5 [3] = target: T1, PRMT5; assay: PRMT5 biochemical IC50 assay with no cofactor; conditions: PRMT5, no cofactor
Source text: Table 1 indicates IC50 values (μM) against PRMT5 for exemplary compounds in the presence of SAM as cofactor, with no cofactor, and with MTA as cofactor, respectively (columns 4-6). […] Ki values can be calculated from the IC50 values as described in the Examples section. As detailed in the Examples section, for the assay performed in the presence of SAM, IC50=Ki×1.5 (Ki=IC50/1.5).

PRMT5 [4] = target: T1, PRMT5; assay: PRMT5 biochemical IC50 assay with MTA as cofactor; conditions: PRMT5, MTA as cofactor; read-out: MTA IC50
[5] = Homo sapiens, HAP1, viability assay, MTAP-deleted cell line
[6] = read-out: No Cofactor/ rel IC50

T1 sequence (O14744 whole entry): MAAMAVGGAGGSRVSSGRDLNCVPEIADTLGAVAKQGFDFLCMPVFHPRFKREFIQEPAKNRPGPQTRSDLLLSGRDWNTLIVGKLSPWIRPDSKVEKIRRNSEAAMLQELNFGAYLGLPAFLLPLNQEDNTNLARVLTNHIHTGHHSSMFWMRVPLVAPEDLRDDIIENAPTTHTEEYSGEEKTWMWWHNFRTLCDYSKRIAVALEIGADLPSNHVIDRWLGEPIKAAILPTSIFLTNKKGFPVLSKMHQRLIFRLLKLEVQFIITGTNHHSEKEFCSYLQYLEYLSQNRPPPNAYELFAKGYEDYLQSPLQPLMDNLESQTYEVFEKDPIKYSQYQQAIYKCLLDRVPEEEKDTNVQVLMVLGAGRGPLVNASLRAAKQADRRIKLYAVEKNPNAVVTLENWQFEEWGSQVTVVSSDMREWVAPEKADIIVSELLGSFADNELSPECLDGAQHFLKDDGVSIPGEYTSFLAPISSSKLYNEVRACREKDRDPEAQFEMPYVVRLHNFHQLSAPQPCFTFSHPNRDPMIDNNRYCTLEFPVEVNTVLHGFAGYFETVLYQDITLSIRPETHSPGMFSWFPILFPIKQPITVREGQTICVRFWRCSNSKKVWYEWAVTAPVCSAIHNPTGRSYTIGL
T1 sequence (Q9BQA1 whole entry partner): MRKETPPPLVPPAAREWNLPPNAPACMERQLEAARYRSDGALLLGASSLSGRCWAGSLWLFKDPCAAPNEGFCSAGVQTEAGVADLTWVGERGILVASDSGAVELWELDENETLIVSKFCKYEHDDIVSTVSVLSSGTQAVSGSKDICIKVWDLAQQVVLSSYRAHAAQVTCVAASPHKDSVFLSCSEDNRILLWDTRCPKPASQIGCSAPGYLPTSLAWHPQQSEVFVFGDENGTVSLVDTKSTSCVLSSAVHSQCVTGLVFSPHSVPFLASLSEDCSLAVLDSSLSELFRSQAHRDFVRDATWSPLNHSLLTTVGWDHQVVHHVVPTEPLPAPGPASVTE

| Compound | IC50 [1, 5] | IC50 (PRMT5 [2]) | IC50 (PRMT5 [3]; read-out: No Cofactor/rel IC50) | IC50 (PRMT5 [4]) | IC50 ([1]; Homo sapiens, HAP1, viability assay, HAP1 MTAP-deleted) | IC50 (PRMT5 [3]; [6]) | IC50 ([1]; viability assay, MTAP-deleted cell line) |
| --- | --- | --- | --- | --- | --- | --- | --- |
| C[C@H]1CC[C@H](c2ccc(N[C@H](C)C(=O)N(C)C)cc2)N(C(=O)C(=O)Nc2cncc(C(N)=O)c2)C1 (racemic) [Compound 414, 5-[[2-[(2R,5S)-2-[4-[[(1R)-2-(Dimethylamino)-1-methyl-2-oxo-ethyl]amino]phenyl]-5-methyl-1-piperidyl]-2-oxo-acetyl]amino]pyridine-3-carboxamide] | > 10000 nM | 50 to 500 nM | 50 to 500 nM | 50 to 500 nM | – | – | – |
| C[C@@H]1CC[C@@H](c2cc(F)cc(F)c2)N(C(=O)C(=O)Nc2cncc(C(N)=O)c2)C1 (racemic) [Compound 416, rac-5-{2-[(2R,5S)-2-(3,5-Difluorophenyl)-5-methylpiperidin-1-yl]-2-oxoacetamido}pyridine-3-carboxamide] | 1000 to 10000 nM | 50 to 500 nM | 50 to 500 nM | 50 to 500 nM | – | – | – |
| NC(=O)c1cncc(NC(=O)C(=O)N2CC[C@H]3C[C@@H](O)CC[C@@H]3C2)c1 (racemic) [Compound 418, 5-[2-(6-Hydroxy-decahydroisoquinolin-2-yl)-2-oxoacetamido]pyridine-3-carboxamide] | > 10000 nM | > 500 nM | > 500 nM | 50 to 500 nM | – | – | – |
| NC(=O)c1cncc(NC(=O)C(=O)N2CC[C@@]3(O)CCCC[C@H]3C2)c1 (racemic) [Compound 421, 5-[2-(4a-Hydroxy-decahydroisoquinolin-2-yl)-2-oxoacetamido]pyridine-3-carboxamide] | > 10000 nM | > 500 nM | > 500 nM | 50 to 500 nM | – | – | – |
| Cc1cc(NC(=O)C(=O)N2C[C@H](C)CC[C@H]2C2CCNCC2)cnc1N (racemic) [Compound 708, N-(6-amino-5-methyl-3-pyridyl)-2-[(2R,5S)-5-methyl-2-(4-piperidyl)-1-piperidyl]-2-oxo-acetamide] | – | > 500 nM | > 500 nM | > 500 nM | > 10000 nM | – | – |
| Cc1cc(NC(=O)C(=O)N2C[C@H](C)CC[C@H]2c2ccc3c(cnn3C)c2)cnc1N (racemic) [Compound 922] | < 1000 nM | 50 to 500 nM | 50 to 500 nM | < 50 nM | – | – | – |
| COc1ncc(NC(=O)C(=O)N2C[C@@H](C)CC[C@@H]2c2ccc3sc(N)nc3c2)cc1C(N)=O (racemic) [Compound 954, 5-[[2-[(2R,5S)-2-(2-amino-1,3-benzothiazol-5-yl)-5-methyl-1-piperidyl]-2-oxo-acetyl]amino]-2-methoxy-pyridine-3-carboxamide] | < 1000 nM | 50 to 500 nM | 50 to 500 nM | 50 to 500 nM | – | – | – |
| Cc1cc(NC(=O)C(=O)N2C[C@H](C)CC[C@H]2c2ccc(C(C)O)cc2)cnc1N (mixture of isomers) [Compound 956, N-(6-amino-5-methyl-3-pyridyl)-2-[(2R,5S)-2-[4-(1-hydroxyethyl)phenyl]-5-methyl-1-piperidyl]-2-oxo-acetamide] | 1000 to 10000 nM | 50 to 500 nM | 50 to 500 nM | 50 to 500 nM | – | – | – |
| Cc1cc(NC(=O)C(=O)N2C[C@H](C)CC[C@H]2c2ccc3[nH]c(N)nc3c2)cnc1N (racemic) [Compound 990] | 1000 to 10000 nM | 50 to 500 nM | 50 to 500 nM | < 50 nM | – | – | – |
| CC(=O)NCc1ccc([C@@H]2CC[C@@H](C)CN2C(=O)C(=O)Nc2cnc(N)c(C)c2)cc1 (racemic) [Compound 1036, rac-2-[(2R,5S)-2-[4-(Acetamidomethyl)phenyl]-5-methyl-1-piperidyl]-N-(6-amino-5-methyl-3-pyridyl)-2-oxo-acetamide] | 1000 to 10000 nM | 50 to 500 nM | 50 to 500 nM | 50 to 500 nM | – | – | – |
| Cn1nccc1C1CCCCN1C(=O)C(=O)Nc1cncc(C(N)=O)c1 (single isomer, unassigned) [Compound 59] | > 10000 nM | > 500 nM | – | 50 to 500 nM | – | > 500 nM | – |
| Cc1cc(NC(=O)C(=O)N2C[C@@H]3CC[C@@H](C3)[C@@H]2c2ccccc2)cnc1N (single isomer, unassigned) [Compound 62] | > 10000 nM | > 500 nM | – | 50 to 500 nM | – | > 500 nM | – |
| C[C@@H]1CCC[C@H](c2ccccc2)N1C(=O)C(=O)Nc1cncc(C(N)=O)c1 (single isomer, unassigned) [Compound 278] | > 10000 nM | > 500 nM | > 500 nM | 50 to 500 nM | – | – | – |
| COc1ncc(NC(=O)C(=O)N2CCCCC2C2CCCC2)cc1C(N)=O (single isomer, unassigned) [Compound 289, 5-(2-(2-cyclopentylpiperidin-1-yl)-2-oxoacetamido)-2-methoxynicotinamide] | – | > 500 nM | > 500 nM | > 500 nM | – | – | > 10000 nM |
| COc1ncc(NC(=O)C(=O)N2C[C@@H](C)CC[C@H]2C2CCCC2)cc1C(N)=O (single isomer, unassigned) [Compound 295] | > 10000 nM | > 500 nM | > 500 nM | > 500 nM | – | – | – |
| CC(=O)N[C@H]1CC[C@H]([C@H]2CC[C@H](C)CN2C(=O)C(=O)Nc2cnc(N)c(C)c2)CC1 (single isomer, unassigned) [Compound 296] | > 10000 nM | > 500 nM | > 500 nM | 50 to 500 nM | – | – | – |

| Compound | IC50 [1, 5] | IC50 (PRMT5 [2]) | IC50 (PRMT5 [3]; read-out: No Cofactor/rel IC50) | IC50 (PRMT5 [4]) | IC50 ([1]; Homo sapiens, HAP1, viability assay, HAP1 MTAP-deleted) | IC50 (PRMT5 [3]; [6]) | IC50 ([1]; viability assay, MTAP-deleted cell line) |
| --- | --- | --- | --- | --- | --- | --- | --- |
| COc1ncc(NC(=O)C(=O)N2C[C@@H](C)CC[C@@H]2C2CCCC2)cc1C(N)=O (single isomer, unassigned) [Compound 298] | > 10000 nM | > 500 nM | > 500 nM | > 500 nM | – | – | – |
| Cc1cc(NC(=O)C(=O)N2C[C@@H](C)[C@@H](C)C[C@H]2c2ccccc2)cnc1N (single isomer, unassigned) [Compound 304] | > 10000 nM | 50 to 500 nM | 50 to 500 nM | 50 to 500 nM | – | – | – |
| COc1ncc(NC(=O)C(=O)N2C[C@H](C)CC[C@@H]2C2CCCC2)cc1C(N)=O (single isomer, unassigned) [Compound 312] | > 10000 nM | 50 to 500 nM | > 500 nM | 50 to 500 nM | – | – | – |
| COc1ncc(NC(=O)C(=O)N2C[C@H](C)CC[C@@H]2C2CCCCC2)cc1C(N)=O (single isomer, unassigned) [Compound 389] | > 10000 nM | > 500 nM | > 500 nM | 50 to 500 nM | – | – | – |
| C[C@@H]1CC[C@H](c2ccc(O)nc2)N(C(=O)C(=O)Nc2cncc(C(N)=O)c2)C1 (single isomer, unassigned) [Compound 401] | > 10000 nM | 50 to 500 nM | 50 to 500 nM | < 50 nM | – | – | – |
| Cc1cc(NC(=O)C(=O)N2C[C@@H](C)CC[C@@H]2[C@H]2CC[C@@H](O)CC2)cnc1N (single isomer, unassigned) [Compound 423] | > 10000 nM | > 500 nM | > 500 nM | > 500 nM | – | – | – |
| CNc1ccc([C@@H]2CC[C@@H](C)CN2C(=O)C(=O)Nc2cncc(C(N)=O)c2)cc1 (single isomer, unassigned) [Compound 424] | > 10000 nM | > 500 nM | > 500 nM | > 500 nM | – | – | – |
| C[C@H]1CC[C@H](c2ccc3c(c2)CCCN3)N(C(=O)C(=O)Nc2cncc(C(N)=O)c2)C1 (single isomer, unassigned) [Compound 426] | > 10000 nM | > 500 nM | > 500 nM | > 500 nM | – | – | – |
| Cc1cc(NC(=O)C(=O)N2C[C@@H](C)CC[C@@H]2[C@H]2CC[C@H](O)CC2)cnc1N (single isomer, unassigned) [Compound 434] | > 10000 nM | > 500 nM | > 500 nM | > 500 nM | – | – | – |
| C[C@@H]1CC[C@@H](c2ccccc2)N(C(=O)C(=O)Nc2cncc(C(N)=O)c2)[C@@H]1C (single isomer, unassigned) [Compound 435] | > 10000 nM | > 500 nM | > 500 nM | > 500 nM | – | – | – |
| C[C@@H]1CC[C@@H](c2cccc(Cl)c2)N(C(=O)C(=O)Nc2cncc(C(N)=O)c2)C1 (single isomer, unassigned) [Compound 441] | > 10000 nM | > 500 nM | > 500 nM | > 500 nM | – | – | – |
| CNc1ccc([C@H]2CC[C@H](C)CN2C(=O)C(=O)Nc2cncc(C(N)=O)c2)cn1 (single isomer, unassigned) [Compound 444] | > 10000 nM | > 500 nM | > 500 nM | > 500 nM | – | – | – |
| COc1ncc(NC(=O)C(=O)N2C[C@@H](C)CC[C@@H]2c2ccc(F)cc2)cc1C(N)=O (single isomer, unassigned) [Compound 445] | > 10000 nM | > 500 nM | > 500 nM | > 500 nM | – | – | – |
| CNc1cccc([C@H]2CC[C@H](C)CN2C(=O)C(=O)Nc2cnc(N)c(C)c2)c1 (single isomer, unassigned) [Compound 450] | > 10000 nM | > 500 nM | > 500 nM | > 500 nM | – | – | – |
| CC(=O)Nc1ccc([C@H]2CC[C@H](C)CN2C(=O)C(=O)Nc2cncc(C(N)=O)c2)cc1 (single isomer, unassigned) [Compound 452] | > 10000 nM | > 500 nM | > 500 nM | > 500 nM | – | – | – |
| Cc1cc(NC(=O)C(=O)N2C[C@H](C)CC[C@H]2c2ccc3c(c2)C(=O)NC3)cnc1N (single isomer, unassigned) [Compound 656] | – | > 500 nM | > 500 nM | > 500 nM | – | – | – |
